Assay results: paper PMC8201479, “Trisubstituted Pyrrolinones as Small-Molecule Inhibitors Disrupting the Protein–RNA Interaction of LIN28 and Let-7” (ACS Medicinal Chemistry Letters, 2021)

Tested on: JAR cells
Assay: RT-qPCR of mature let-7 in JAR cells
Type: cell-based, human
Settings: 24 h treatment
Method: differential scanning fluorimetry (nanoDSF) instrument at temperatures between 20 °C and 90 °C and a temperature slope of 1 °C per minute with an excitation power of 50–60 %. A total protein concentration of 30 µM and compound concentrations from 100 µM to 0.78 µM corresponding to […] to 0.039 % DMSO, respectively, were used. Compound and protein were incubated for 45 minutes at room temperature in buffer containing 30 mM NaH2PO4, 50 mM NaCl, 1 mM MgCl2, and 50 µM ZnCl2 at pH 8 and 10 µL sample was loaded to each nanoDSF standard capillary (NanoTemper). The ratio of intrinsic tryptophan fluorescence at 350 nm and 330 nm was measured and the first derivative was determined to detect the inflection points using the software of the device.
RT-qPCR. JAR cells (obtained from DSMZ, German Collection of Microorganisms and Cell Cultures, Braunschweig, Germany, DSMZ no. ACC462)1 were cultured in 24-well plates and treated with the compound (PH-31) for 24 h with a total DMSO concentration of 0.5 % in all wells. RNA was extracted using RNeasy Mini Kit (Qiagen) and 20 ng of total RNA was used for reverse transcription using the TaqMan microRNA Reverse Transcription Kit (Applied Biosystems) following the manufacturer's protocols. […]

O=C(C1=C(O)C(=O)N(c2ccc(O)c(C(=O)O)c2)C1c1ccc(-c2nccs2)cc1)c1ccc(Br)cc1 (centres unmarked) [C902/PH-31]
level of mature let-7a: increased levels
level of mature let-7g: increased levels
